According to patent US20250195504A1, “NALTREXAMINE DERIVATIVES BEARING 5-MEMBER HETEROCYCLIC RING SYSTEMS AND OPIOID RECEPTOR MODULATORS” (VIRGINIA COMMONWEALTH UNIVERSITY, priority 2022, published 2025):
Structures can show the parent of a compound that is named as a salt.

Legend:
male Swiss Webster mice = test: warm-water tail immersion (tail flick / tail-withdrawal) assay, antinociception; type: in vivo, mouse; details: mice
Protocol: In this assay, the duration for which mice kept their tails in the warm water was recorded.
All thirty-six compounds' antinociception were examined in tail immersion assay first to preclude any opioid receptor agonists.
Swiss Webster mice (six male mice for each group, 25-35 g, 6-8 weeks old) were used in this assay. Antinociception for all compounds was examined in male Swiss Webster mice. […] To prevent tissue damage, a 10 s maximum cutoff time was imposed. Antinociceptive response was calculated as the percentage of maximum possible effect (% MPE), where % MPE=[(test−control latency)/(10−control latency)]×100.
Warm-water tail immersion assay is a well-established assay for evaluating opioid analgesics, especially MOR agonists. […] In this context, all 24 compounds were first evaluated for their acute antinociception tail-withdrawal assay (FIG. 5A).
The tail-withdrawal test was performed using a water bath with the temperature maintained at 56±0.1° C. Baseline latency was measured before any injections. Each mouse was gently wrapped in a cloth with only the tail exposed. The distal one-third of the tail was immersed perpendicularly in water, and the mouse rapidly flicked the tail from the bath was seen as the first sign of discomfort. The duration of time the tail remained in the water bath was counted as the baseline latency. Untreated mice with baseline latency reaction times ranging from 2 to 4 seconds were used. Test latency was obtained 20 min later after each injection. A 10-second maximum cutoff latency was used to prevent any tissue damage. Antinociception was quantified as the percentage of maximal possible effect (% MPE), which was calculated as % MPE=[(test latency−control latency)/(10−control latency)]×100. The % MPE value was calculated for each mouse using 6 mice per group. Testing compounds were given 10 mg/kg (s.c.) to each mouse.

h5-HT1b = h5-HT1b (Homo sapiens, UniProt P28222); test: side effect profiling, h5-HT1b; type: binding; details: for h5-HT1b binding: at 10 uM
hNK1 = hNK1 (Homo sapiens, UniProt P25103); test: side effect profiling, hNK1; type: binding; details: at 10 uM
hNOP = hNOP (Homo sapiens, UniProt P41146); test: side effect profiling, hNOP; type: binding; details: for hNOP binding: at 10 uM
hα1D = hα1D (Homo sapiens, UniProt P25100); test: side effect profiling, hα1D; type: binding
Potassium channel hERG = Potassium channel hERG (Homo sapiens, UniProt Q12809); test: side effect profiling, hERG channel; details: for hERG channel binding: at 10 uM
MOR-CHO cells = biological target: T1, MOR-CHO cells (Mus musculus, UniProt P42866); test: Calcium flux on MOR-CHO cells, acting as antagonists against DAMGO; type: cell-based
T1 construct: expressed in transfected cells; host or cells: CHO

h5-HT2b = h5-HT2b (Homo sapiens, UniProt P41595); test: side effect profiling, h5-HT2b; type: binding; details: at 10 uM
hNK3 = hNK3 (Homo sapiens, UniProt P29371); test: side effect profiling, hNK3; type: binding
Na channel = test: side effect profiling, Na channel; type: binding
DOR = biological target: T2, DOR (Homo sapiens, UniProt P41143); test: competitive radioligand binding assay, DOR ([3H]diprenorphine, CHO cell membranes); details: Tables A, B; read-out: Binding Affinity Ki (nM) ± SEM, DOR
T2 construct: expressed in transfected cells; host or cells: CHO

MOR = MOR (Mus musculus, UniProt P42866); details: read-out: Binding Affinity Ki (nM) ± SEM, MOR; Tables A, B
Caco-2 permeability = details: human, Caco-2, pH 7.4
KOR = KOR (Mus musculus, UniProt P33534); test: competitive radioligand binding assay, KOR ([3H]diprenorphine, CHO cell membranes); set-up: expressed in transfected cells; host or cells: CHO; details: Tables A, B; read-out: Binding Affinity Ki (nM) ± SEM, KOR

In the case of `O=C(N[C@H]1CCC2(O)C3Cc4ccc(O)c5c4[C@@]2(CCN3CC2CC2)[C@H]1O5)c1ccc[nH]1` (stereo partly drawn) [Example 1 compound 1, 17-Cyclopropylmethyl-3,14β-dihydroxy-4,5α-epoxy-6a-[(2′-pyrrolyl)carboxamido]morphinan hydrochloride], the “Tail flick assay, anti-nociceptive effect (in words)” value (male Swiss Webster mice; single dose, dose printed with the value) is reported as “No anti-nociceptive effect up to 100 mg/kg”, the Ki (h5-HT1b) is reported as 482 nM and the h5-HT1b binding (h5-HT1b) is reported as 85%. It also gave a hNK1 binding (hNK1) of 89%, a Ki (hNOP) of 1440 nM and a hNOP binding (hNOP) of 59%. It also gave a Ki (hα1D) of 771 nM, a hα1D binding (hα1D; at 10 uM) of 84% and a Ki (Potassium channel hERG) of 8600 nM. For the same compound, the hERG channel binding (Potassium channel hERG) was “Potassium channel hERG (52% at 10 uM),”.

In the case of `O=C(N[C@H]1CC[C@@]2(O)[C@H]3Cc4ccc(O)c5c4[C@@]2(CCN3CC2CC2)[C@H]1O5)c1cccs1` [Example 1 compound 25, 17-Cyclopropylmethyl-3,14β-dihydroxy-4,5α-epoxy-6α-(2′-thienylcarboxamido)morphinan hydrochloride], the IC50 (MOR-CHO cells) is reported as 26.7 nM, the “Tail flick assay, percentage maximum possible effect (% MPE)” value (male Swiss Webster mice; single dose 10 mg/kg) is reported as “effect (% MPE) of NAT (10 mg/kg) was 15.2” and the h5-HT2b binding (h5-HT2b) is reported as “h5-HT2b (78% at 10 uM)”. It also gave a Ki (hNK3) of 3900 nM, a hNK3 binding (hNK3; at 10 uM) of 56% and a Ki (hNOP) of 6400 nM. For the same compound, the hNOP binding (hNOP) was 60%, the Ki (Na channel) was 9900 nM and the Na channel binding (Na channel; at 10 uM) was 55%.

Work on `O=C(N[C@H]1CC[C@@]2(O)[C@H]3Cc4ccc(O)c5c4[C@@]2(CCN3CC2CC2)[C@H]1O5)c1nccs1` [NTZ, 17-Cyclopropylmethyl-3,14β-dihydroxy-4,5α-epoxy-6α-(2′-thiazolylcarboxamido)morphinan hydrochloride] yielded a Ki (DOR) of 41.1 ± 3.58 nM, a Ki (MOR) of 0.25 ± 0.03 nM and an efflux ratio at 1 h, 10 μM (Caco-2 permeability) of 2.5. For the same compound, the Ki (KOR) was 1.3 ± 0.12 nM.

With `O=C(N[C@H]1CC[C@@]2(O)[C@H]3Cc4ccc(O)c5c4[C@@]2(CCN3CC2CC2)[C@H]1O5)c1ccsc1` [Example 1 compound 31, 17-Cyclopropylmethyl-3,14β-dihydroxy-4,5α-epoxy-6α-(3′-thienylcarboxamido)morphinan hydrochloride] the IC50 (MOR-CHO cells) was 28.9 nM, the h5-HT1b binding (h5-HT1b) was “h5-HT1b (98% at 10 uM)” and the hNK1 binding (hNK1) was “hNK1 (80% at 10 uM)”. The hERG channel binding (Potassium channel hERG) was “hERG channel (58% at 10 uM)”.
